The values that follow come from US6521751B1, “Recombinant nucleic acid sequences and methods for determining both genotoxicity and mutagenicity of a sample and the kinetics of the genotoxicity” (Vlaamse Instelling voor Technologisch Onderzoek (VITO), priority 1998, dated 2003).

The subject of series [1] is TA 98 and TA104 strains containing pMOL1067 or pMOL1068.
A further series has as its system TA104 (pMOL890). Conditions: M9 medium saturated with 0.1% of the PAH, degrading strain, samples every 3 days.
The next series deals with E. coli (sfiA-lacZ). To be noted: cited from earlier work; for MINIMAL DETECTED CONCENTRATION (MDC): literature values.
For another series, the system named is S. typhimurium. Conditions: cited from earlier work.
Series [2] concerns novel biosensor systems in E. coli and in S. typhimurium strains. The experiment in a line: Subject SOS promoter-lux systems (general statements). To be noted: agents known to give false negative results in the SOS chromotest and the Ames test. For orientation: The Ames test detects mutagens through reverse mutation in bacteria.
In series [3] the test system is TA98 and TA104 strains containing pMOL890, pMOL1067 or pMOL1068. The experiment in a line: Test with the TA98 and TA104 strains containing pMOL890, pMOL1067 or pMOL1068.
In series [4] the test system is S. typhimurium TA104 containing pMOL1066. To be noted: TA104 pMOL1066.
The subject of series [5] is S. typhimurium TA104 containing pMOL1067. To be noted: TA104 pMOL1067.
Series [6] relates to S. typhimurium TA104 containing pMOL1068. To be noted: TA104 pMOL1068.
Series [7] has as its system S. typhimurium TA104 containing pMOL1069. To be noted: TA104 pMOL1069.
In series [8] the test system is S. typhimurium TA98 containing pMOL1067. Conditions: TA98 pMOL1067.
Series [9] concerns S. typhimurium TA98 containing pMOL1068. To be noted: TA98 pMOL1068.
Series [10] relates to S. typhimurium TA98 containing pMOL890. Conditions: TA98 pMOL890.
For series [11], the system named is S. typhimurium TA104 containing pMOL890. To be noted: TA104 pMOL890.
In series [12] the test system is TA98 and TA104 containing pMOL1067. In words: Induction kinetics with pMOL1067. The format is cell-based, S. typhimurium. On the procedure:
The reaction of the different constructs when more than one genotoxic product is present in the test sample. was examined. This is an important aspect, since environmental samples often contain more than one genotoxic pollutant. Also in this regard many pharmaceutical products that have to be tested for genotoxicity can be a combination of different active genotoxic substances (e.g. anticancer or anti AIDS drugs). The experiments were performed with TA98 and TA104 containing either pMOL1067 or pMOL890. These two constructs were chosen since they show similar induction kinetics and the best signal/noise ratio's in S. typhimurium (see FIG. 7 and FIG. 8). As test products, several combinations of MMS and novobiocine were taken. These products were used since they were found by us to have different induction kinetics (e.g., with pMOL1067 MMS gives a maximum after 2 hours, while the maximal signal/noise ratio with novobiocine is observed after 4 hours).

The mark [13] stands for this setting: TA 98 and TA104 strains containing pMOL1067 or pMOL1068.

Read-outs that look alike come from different tables or passages of the source.

As to `c1ccc2c(c1)ccc1ccccc12` [Phenanthrene], the “OUTCOME (genotoxicity, final outcome)” value in [1] (setting [13]) is listed as “pos”. The “genotoxicity during bacterial degradation of the PAH” value in the series on TA104 (pMOL890) is “an increase followed by a decrease in genotoxicity”. Also, in the series on E. coli (sfiA-lacZ) (SOS chromotest, Table 3), the “SOS (result)” value is recorded as “pos”. For the same compound, in the series with S. typhimurium (Ames test, Table 3), the “AMES (result)” value is “neg”. Besides, the “result in the Ames test” value in the series on S. typhimurium (text b127) is on record as “False-negative”. For the same compound, the “result in the novel systems according to the invention” value (from here on “result in the novel systems according”) in [2] is recorded as “positive”. Also, the “result in the test (genotoxicity)” value in series [3] was “positive”.
On to `c1ccc2c(c1)-c1cccc3cccc-2c13` [Fluoranthene], for which the “OUTCOME (genotoxicity, final outcome)” value in series [1] is “pos”. The “genotoxicity during bacterial degradation of the PAH” value with TA104 (pMOL890) is “an increase of genotoxicity”. Besides, in the series with E. coli (sfiA-lacZ), the “SOS (result)” value is given as “pos”. Also, the “AMES (result)” value in the series on S. typhimurium was “pos”.
With `OO` [H2O2, hydrogen peroxide], the “MINIMAL DETECTED CONCENTRATION (MDC)” value came out at 11.8 nmol/assay in [4]; 11.8 nmol/assay in series [5]; 11.8 nmol/assay in series [6]; 5.9 nmol/assay in series [7]; 1.5 nmol/assay in [8]; 1.5 nmol/assay in [9]. The “MINIMAL DETECTED CONCENTRATION (MDC)” value in series [10] is 8.5 nmol/assay; in series [11], 3.8 nmol/assay; with E. coli (sfiA-lacZ) (SOS chromotest) it was 23 nmol/assay; in the series on S. typhimurium it was “neg”. The “OUTCOME (genotoxicity, final outcome)” value in series [1] (setting [13]) is “pos”. The “SOS (result)” value with E. coli (sfiA-lacZ) (SOS chromotest, Table 3) is reported as “pos”. Also, the “AMES (result)” value in the series on S. typhimurium is “neg”. Moreover, the “result in the Ames test” value with S. typhimurium is listed as “False-negative”. Moreover, the “result in the novel systems according” value in series [2] is recorded as “positive”. Also, the “result in the test (genotoxicity)” value in series [3] is “positive”.
Consider `c1ccc2c(c1)Cc1ccccc1-2` [fluorene], for which, in the series with TA104 (pMOL890), the “genotoxicity during bacterial degradation of the PAH” value is reported as “no significant increase in genotoxicity”.
Consider `CO[C@@H]1[C@@H](OC(N)=O)[C@@H](O)[C@H](Oc2ccc3c(O)c(NC(=O)c4ccc(O)c(CC=C(C)C)c4)c(=O)oc3c2C)OC1(C)C` [novobiocine], for which the “time of maximal signal/noise ratio” value in [12] was 4 h. In addition, the “MINIMAL DETECTED CONCENTRATION (MDC)” value in series [4] is given as 1.26 nmol/assay; in series [5], 0.32 nmol/assay; in [6], 1.26 nmol/assay; in [7], 0.32 nmol/assay; in series [8] it was 0.079 nmol/assay; in series [9], 0.63 nmol/assay. Also, the “MINIMAL DETECTED CONCENTRATION (MDC)” value in series [10] is recorded as 0.57 nmol/assay; in series [11], 1.26 nmol/assay; in the series on E. coli (sfiA-lacZ) (SOS chromotest) it was “neg”; in the series on S. typhimurium (AMES, literature values, pos/neg where MDC could not be calculated), “pos”. Besides, in [1] (setting [13]), the “OUTCOME (genotoxicity, final outcome)” value was “pos”. For the same compound, the “SOS (result)” value with E. coli (sfiA-lacZ) (SOS chromotest, Table 3) is reported as “neg”. In the series with E. coli (sfiA-lacZ) (text b126), the “result in the SOS chromotest” value is “negative”. Also, the “AMES (result)” value in the series with S. typhimurium (Ames test, Table 3) is listed as “pos”. In addition, the “result in the novel systems according” value in series [2] is recorded as “positive”. Moreover, in series [3], the “result in the test (genotoxicity)” value is “positive”.
